# Laboratory results as given in article PMC6143625, “A high throughput screen for next-generation leads targeting malaria parasite transmission” (Nature Communications, 2018).
# How the values were obtained:
# [1] = system: P. falciparum stage V male gametocytes (male gamete formation); assay: P. falciparum dual gamete formation assay (Pf DGFA), male readout (exflagellation), 48 h carry-over format; format: cell-based, Plasmodium falciparum NF54; conditions: primary screen, 2 uM, 48 h incubation, single replicate
# Protocol: (§1) P. falciparum NF54 strain (originally isolated from an imported malaria case in the Netherlands in the 1980s; BEI Resources, cat. no. MRA-1000) asexual and sexual stages culture was performed as previously described. Gametocyte cultures were initiated at 1% asexual ring stage parasitaemia and 4% haematocrit in 40 ml final volume. To induce gametocyte production, complete culture medium (CM) (RPMI 1640 supplemented with 25 mM HEPES, 50 µg ml^−1 hypoxanthine, 2 g l^−1 NaHCO3 and 10% pooled human male type A+ serum) was replaced daily for 14 days without fresh erythrocyte addition. Human serum was obtained from Interstate Blood Bank, A^+ serotype; no aspirin 2 h before drawing and no antimalarials 2 weeks before drawing. On day 14 after culture induction, gametocyte production was assessed by thin smear and Giemsa staining, and exflagellation accurately counted in a haemocytometer. Gametocyte cultures with >0.2% exflagellation (compared to total erythrocyte cell number) were deemed acceptable for use in the Pf DGFA. Note, all human biological samples were sourced ethically and their research use was in accord with the terms of the informed consents under an IRB/EC approved protocol.
# (§2) In screening mode, the assay was performed as described in Delves et al.[35] with a mean Z′ factor of 0.56 ± 0.14 (SD) (male) and 0.71 ± 0.17 (SD) (female). Pooled mature gametocyte cultures with the capacity to yield >0.2% exflagellation (of total cells) were diluted in CM to 14 million cells per ml and so that 700,000 cells were dispensed in 50 µl into each well of the warmed 384-well screening plates. Parasites were incubated in the plates with compounds for 48 h in a humidified chamber under 92%N2/5% CO2/3% O2 gas mix before gamete formation was triggered by addition of 10 µl per well ookinete medium (RPMI 1640 supplemented with 25 mM HEPES, 50 µg ml^−1 hypoxanthine, 2 g l^−1 NaHCO3, 100 µM xanthurenic acid) containing 0.5 µg ml^−1 anti-Pfs25 clone 4B7 (BEI Resources, cat. no. MRA-315) conjugated to the fluorophore Cy3 (GE Healthcare), and also by cooling the plate at 4 °C for 4 min and then a further 5 min at 28 °C. Exflagellation was recorded immediately by brightfield microscopy using a Nikon Ti-E widefield microscope at ×4 objective, ×1.5 zoom, recording a 10-frame video time-lapse over 2 s for each well. Afterwards, plates were incubated in the dark at 28 °C for a further 24 h to allow female gametes to maximally express Pfs25 on their surface. Female gamete formation was recorded by single-image fluorescence microscopy using the same microscope and magnification as above. Exflagellation and female gamete formation were quantified by specific algorithms designed with the open-source ICY Image Analysis software.
# (§3) Assay performance statistics, such as signal to background ratio, Z′ and robust 3×SD activity cut-off were calculated using templates in ActivityBase XE (IDBS, Guilford, Surrey, UK). Hit population analysis and visualisation were conducted using Spotfire DecisionSite (Spotfire, Inc., Somerville, Massachusetts). The pIC50 (−log IC50) values were obtained using the ActivityBase XE nonlinear regression function in the full curve analysis bundle. In screening mode, the Pf DGFA achieved a mean Z′ factor of 0.56 ± 0.14 (SD) (male) and 0.71 ± 0.17 (SD) (female).
# [2] = system: P. falciparum stage V female gametocytes (female gamete formation); assay: P. falciparum dual gamete formation assay (Pf DGFA), female readout (Pfs25 expression), 48 h carry-over format; format: cell-based, Plasmodium falciparum NF54; conditions: primary screen, 2 uM, 48 h incubation, single replicate
# Protocol: as §1
# as §2, with “Parasites were incubated in the plates with compounds for 48 h in a humidified chamber under” left out
# as §3
SMILES,%Inhibition Male @2uM [1] [%],%Inhibition Female @2uM [2] [%]
CN(C)C(=O)CN1CCC(c2c(C(N)=O)sc3ncccc23)C1 (centres unmarked) [DDD01056829],34.06,<30
CN1CC2(CCC(C(=O)N3CCOCC3)CC2)Oc2ccccc2C1=O (centres unmarked) [DDD01056893],30.45,<30
O=C(NC1CC1)[C@H]1CN(Cc2ccccc2)C[C@@H]1C(=O)c1ccccc1 [DDD01056910],31.76,<30
CS(=O)(=O)N1CCCCC1c1ccc(Nc2cnccn2)nc1 (centres unmarked) [DDD01057097],34.23,<30
CN1CCOC(C)(C(=O)Nc2nccs2)C1 (centres unmarked) [DDD01057393],32.46,<30
O=C(Cn1cnc2cc3c(cc21)OCCCO3)NCCc1ccccc1 [DDD01057871],<30,36.66
COc1cccc(CC(=O)N2CCCC2c2nc(=O)c(C)c(C)[nH]2)c1 (centres unmarked) [DDD01059601],<30,33.02
CNc1cncc(C2CCCN2c2cc(C)ncn2)n1 (centres unmarked) [DDD01059901],44.44,<30
CC(=O)N1CCCC(c2ccccn2)C1 (centres unmarked) [DDD01059909],30.93,<30
CN(C)C(=O)CN1CCC(c2cccc(Cc3ccc(F)cc3)n2)CC1 [DDD01060228],31.41,<30
CC(C)CC(=O)N1CCN(Cc2cc(-c3ccncc3)nn2C)CC1 [DDD01060230],<30,78.93
OC1(Cn2ccc3ncccc32)CCN(Cc2cc(F)cc(F)c2)CC1 [DDD01060275],30.37,<30
Cc1cncc(C(=O)N[C@@H]2CC[C@@H](N3CCOCC3)[C@@H]2O)c1 [DDD01060350],<30,35.23
CC(=O)N1CCN([C@@H]2CC[C@@H](NC(=O)c3cc(C)cs3)[C@H]2O)CC1 [DDD01060352],<30,32.18
CC(C)(N)C(=O)N1CCCC1c1cncc(Oc2ccccc2)n1 (centres unmarked) [DDD01060400],<30,49.04
Cc1nc2ccc(C(=O)N3CCn4c(nnc4C4CC4)C3)cc2nc1C [DDD01060815],<30,31.88
O=C(C1CCCCC1)N1CCC(c2[nH]nc3nccnc23)CC1 [DDD01060967],<30,38.46
O=C(c1cn[nH]n1)N1CCCC1C1CCCCC1 (centres unmarked) [DDD01061770],<30,30.76
Cc1noc(C)c1CNC1CCN(c2ccccc2OC(F)F)C1 (centres unmarked) [DDD01061833],<30,39.11
CN(C)c1ccc(CNC(=O)Nc2ccc(S(=O)(=O)C(F)F)cc2)cc1 [DDD01062359],<30,41.45
Cc1ccc(OCCCC(=O)Nc2nonc2C)cc1C [DDD01063175],<30,30.83
Cc1noc(C(C)Nc2ccc3oc(C)nc3c2)n1 (centres unmarked) [DDD01064591],<30,37.30
CC1CN(C(=O)c2cnn(-c3ccccn3)c2C(C)C)CC(C)(C)O1 (centres unmarked) [DDD01064602],<30,40.46

SMILES,%Inhibition Male @2uM [1] [%],%Inhibition Female @2uM [2] [%]
CCOc1nnc(CN2CCN(CCOC)C(C)C2)s1 (centres unmarked) [DDD01065018],30.92,<30
c1cc(NCc2ccsc2)cc(-c2nnc[nH]2)c1 [DDD01065418],31.81,<30
Cc1nc(C)c(C(=O)N2CCc3c(Cl)cccc32)o1 [DDD01065842],32.65,<30
Cc1[nH]c(C2(N)CCCCC2)nc(=O)c1C [DDD01066687],<30,32.19
Cc1ccc(N2CCCC(N(C)Cc3cc(C)on3)C2)nn1 (centres unmarked) [DDD01069945],<30,39.02
COc1cc(CNC(C)c2cccc(Cl)c2)cc(OC)c1OC (centres unmarked) [DDD01069994],35.70,<30
COCc1noc(C2(c3cccc(Cl)c3)CCOCC2)n1 [DDD01070409],71.92,<30
O=C(CNc1cc2c(cc1Cl)OCCO2)NCC(F)(F)F [DDD01070591],<30,39.90
CCS(=O)(=O)NC1CCCN(c2ccc(F)cc2C)C1=O (centres unmarked) [DDD01074148],<30,33.10
COC(=O)C1CCCN1C(=O)c1ccc(-n2nc(C)cc2C)cc1 (centres unmarked) [DDD01075977],<30,33.22
Fc1ccc(-c2nnc(CNC3CCc4ncnn4C3)o2)cc1 (centres unmarked) [DDD01076055],<30,36.38
Cc1noc(CS(=O)(=O)C(C)C(=O)N(C)c2ccccc2)n1 (centres unmarked) [DDD01076606],31.49,<30
CN(C)C(=O)c1ccc(NCCNc2ccc3ccccc3n2)nc1 [DDD01076923],31.80,<30
CN(CC(N)=O)C(=O)C1Cc2cc(Cl)ccc2O1 (centres unmarked) [DDD01077287],<30,46.87
O=S(=O)(NC1CCCCC12OCCO2)c1cc(F)cc(F)c1 (centres unmarked) [DDD01077321],<30,41.54
CC(CCc1ccccc1)N1CCC(C(=O)Nc2cnccn2)CC1 (centres unmarked) [DDD01077885],52.25,<30
CC(C)c1nsc(N2CCc3sccc3C2)n1 [DDD01078291],38.07,<30
CSc1ccc(OCCN2CCNC(=O)CC2)cc1 [DDD01078342],<30,31.10
CC(CNC(=O)c1cnc[nH]1)Oc1ccc(Cl)cc1 (centres unmarked) [DDD01078520],<30,32.98
Cc1cc(C)c(C(=O)N2CCc3c(ncn3CCc3ccccc3)C2)[nH]1 [DDD01078816],<30,31.51
CCS(=O)(=O)c1ccc(N2CCC(NC(C)=O)CC2)cc1 [DDD01080141],<30,30.47
CCN(CC)CC(=O)NCCc1csc(N2CCCC2)n1 [DDD01080188],<30,40.13
Cc1ccc(C2COCCN2C(=O)c2ccc(CN(C)C)cc2)o1 (centres unmarked) [DDD01080189],<30,41.68
